These results are taken from patent US8383183B2, “Sweetness enhancers, sweetness enhanced sweetener compositions, methods for their formulation, and uses” (The Coca-Cola Company, priority 2007, dated 2013).

Several values for one entry are separate records, joined by “and”; a condition that tells them apart may be missing. Identical values can stand only once.

The nature of series [1]: Rate of dissolution in H2O at 25° C. The series is classed as physicochemical.
In series [2] the test system is sweetness intensity of 6% sucrose. In words: Sulfamate & 6% sucrose Sweetness Enhancement Test (sensory rating against 6-10% sucrose references). The series is classed as in vivo. Also noted: key to Sweetness Intensity Rating (6-10), subject #1 / Sweetness Intensity Rating (6-10), subject #2 / Sweetness Intensity Rating (6-10), subject #3 / Sweetness Intensity Rating (6-10), subject #4 / Sweetness Intensity Rating (6-10), subject #5 / Average Intensity Rating: sweetness rated 6-10 relative to 6-10% sucrose references. How it is done:
Sensory studies that were carried out on the N-substituted sulfamic acid salts included 1) preliminary sulfamate analogue Sweetness Detection Threshold (SDT) estimation, 2) refined Sweetness Detection Threshold (SDT) estimation, 3) N-substituted sulfamic acid salts mixed with 6% sucrose Sweetness Enhancement Test and 4) repeat of step 3. Reference samples were prepared at 6, 7, 8, 9 and 10% sucrose (w/v). […] Each of the ten samples was then individually rated for sweetness intensity on a scale of 6-10 relative to the 6-10% sucrose references.

Series [3] deals with sweet taste. As to the kind of experiment: Preliminary sulfamate analogue Sweetness Detection Threshold (SDT) estimation, sip-and-spit, one experienced subject. The series is classed as in vivo. Conditions: for sweet taste exhibited: 15.6-1,000 ppm solutions in water, one subject. Here is the method: Sensory studies that were carried out on the N-substituted sulfamic acid salts included 1) preliminary sulfamate analogue Sweetness Detection Threshold (SDT) estimation, 2) refined Sweetness Detection Threshold (SDT) estimation, 3) N-substituted sulfamic acid salts mixed with 6% sucrose Sweetness Enhancement Test and 4) repeat of step 3. A 1,000 ppm sulfamate analogue solution was prepared by dissolution of 20 mg sulfamate analogue in 20 mL purified water. An aliquot (10 mL) of this solution was diluted to 20 mL with water to obtain a 500 ppm solution. Additional 1:1 serial dilutions step were used to obtain 250, 125, 62.5, 31.2 and 15.6 ppm solutions. These solutions were then tasted in ascending order of concentration by one experienced subject by using a sip-and-spit protocol. The subject's estimated SDT was determined to be at the lowest concentration at which sweetness was definitely observed.

Series [4] has as its system sweet taste. As to the kind of experiment: N-alkyl sulfamate SDT estimation, sip-and-spit, 5 experienced subjects. The series is classed as in vivo. Here is the method:
A 250 ppm solution of 4 was prepared by dissolution of 50 mg sulfamate in 200 mL purified water. An aliquot (100 mL) of this solution then was diluted to 200 mL with water to obtain a 125 ppm solution. Additional 1:1 serial dilution steps were used to prepare 62.5, 31.2 and 15.6 ppm solutions. These solutions then were tasted in ascending order of concentration by 5 experienced subjects by a sip-and-spit protocol.

The mark [5] stands for this setting: 125 ppm in 6% sucrose, single test sample, listed as NS.

As to `C=C1C[C@@]23CC[C@H]4[C@@](C)(CCC[C@@]4(C)C(=O)O[C@@H]4O[C@H](CO)[C@@H](O)[C@H](O)[C@H]4O)[C@@H]2CC[C@]1(O[C@@H]1O[C@H](CO)[C@@H](O)[C@H](O[C@@H]2O[C@H](CO)[C@@H](O)[C@H](O)[C@H]2O)[C@H]1O[C@@H]1O[C@H](CO)[C@@H](O)[C@H](O)[C@H]1O)C3` [Form 4, rebaudioside A], the “Rate of dissolution in H2O at 25° C.” value in series [1] (in 5 minutes) was “High (>35.0%”.
Turning to `CC1CCCCC1NS(=O)(=O)[O-].[Na+]` (stereo not shown) [sulfamate 2, sodium 1H-2-methyl cyclohexyl sulfamate], the “sweetness intensity of a 6.0% sugar solution increased to the equivalent of” value in series [2] (about 430 ppm in 6.0% sugar solution) was “about 7.3 % sugar solution”. Besides, the sweet taste exhibited entry with sweet taste [3] is “exhibit sweet taste”. Besides, in the series with sweet taste [3] (1,000 ppm in water), the off-taste result is “some bitterness off-taste problems” and the taste result was “slight sweet taste”. In the series with sweet taste [3] (no sugar), the “sweet taste of the sulfamate by itself” value is reported as “not sweet by itself”.
Take `O=S(=O)([O-])NC1CC2CCC1C2.[Na+]` (stereo not shown) [sulfamate 4, sodium bicycle[2.2.1]heptan-2-yl sulfamate]: the “Average Intensity Rating” value in series [2] (125 ppm in 6% sucrose, single test sample, mean of 5 subjects, listed as NS) is 8.2 and 8.4 and 7.2 and 8.6. Further, in series [2] (setting [5]), the “Sweetness Intensity Rating (6-10), subject #1” value is 8 and 9 and 7; the “Sweetness Intensity Rating (6-10), subject #2” value is 8 and 9 and 7 and 10; the “Sweetness Intensity Rating (6-10), subject #3” value was 8 and 7; the “Sweetness Intensity Rating (6-10), subject #4” value was 9 and 7. Moreover, the “Sweetness Intensity Rating (6-10), subject #5” value in series [2] (setting [5]) is 8 and 7. Besides, the “average sweetness intensity rating, with 6% Sucrose Test Average” value in series [2] (125 ppm in 6% sucrose, scale 6-10 relative to 6-10% sucrose references, mean of four test samples) is 8.1. In series [2] (about 125 ppm in 6.0% sugar solution), the “sweetness intensity of a 6.0% sugar solution increased to the equivalent of” value is “about 8.1 % sugar solution”. Also, in the series on sweet taste [3], the sweet taste exhibited entry is on record as “exhibit sweet taste”. In the series with sweet taste [3] (1,000 ppm in water), the off-taste result is reported as “no off-taste” and the taste result is given as “strong sweet taste”. In addition, the “sweet taste of the sulfamate by itself” value in the series with sweet taste [3] (no sugar) is recorded as “very faint sweet taste”. The taste result in the series with sweet taste [3] (ca. 62 ppm in water) is listed as “weak sweet taste”. In the series with sweet taste [4] (5 subjects, in water), the “Sweetness Detection Threshold (SDT)” value is recorded as under 125 ppm. Besides, in the series with sweet taste [4] (15.6 ppm solution, all 5 subjects), the taste entry is on record as “absence of taste”. In the series on sweet taste [4] (31.2 ppm solution, all 5 subjects), the taste result was “absence of taste”. Besides, the taste result in the series with sweet taste [4] (62.5 ppm solution, 3 out of 5 subjects) is given as “very faint sweetness”. The “sweetness, sugar equivalent” value with sweet taste [4] (125 ppm solution, 4 out of 5 subjects) is recorded as “less than 1 % sugar equivalent”. In addition, the “sweetness comparable to that of sucrose” value in the series on sweet taste [4] (250 ppm sample, all 5 subjects) is “ca. 2 % sucrose”. Besides, the “equivalent sweetness intensity by itself” value in the series with sweet taste [4] (about 62 ppm, by itself) was under 1 % sugar solution.
As to `C=C1C[C@@]23CC[C@H]4[C@@](C)(CCC[C@@]4(C)C(=O)O[C@@H]4O[C@H](CO)[C@@H](O)[C@H](O)[C@H]4O)[C@@H]2CC[C@]1(O[C@@H]1O[C@H](CO)[C@@H](O)[C@H](O[C@@H]2O[C@H](CO)[C@@H](O)[C@H](O)[C@H]2O)[C@H]1O[C@@H]1O[C@H](CO)[C@@H](O)[C@H](O)[C@H]1O)C3` [Form 3, rebaudioside A], in series [1] (in 5 minutes), the “Rate of dissolution in H2O at 25° C.” value was “High (>30%”.
With “sodium 1H-1,3,5-triazolyl sulfamate [sulfamate 1]”, the “sweetness intensity of a 6.0% sugar solution increased to the equivalent of” value in series [2] (about 372 ppm in 6.0% sugar solution) was “about 7.1 % sugar solution”. The “sweet taste of the sulfamate by itself” value with sweet taste [3] (no sugar) is reported as “not sweet by itself”.
In the case of `CC(C)(C)CCNS(=O)(=O)[O-].[Na+]` [sulfamate 3A, sodium 1H-3,3-dimethyl butyl sulfamate], the “sweetness intensity of a 6.0% sugar solution increased to the equivalent of” value in series [2] (about 406 ppm in 6.0% sugar solution) is “about 7.0 % sugar solution”. Also, the “sweet taste of the sulfamate by itself” value with sweet taste [3] (no sugar) is “not sweet by itself”.
Consider `C=C1C[C@@]23CC[C@H]4[C@@](C)(CCC[C@@]4(C)C(=O)O[C@@H]4O[C@H](CO)[C@@H](O)[C@H](O)[C@H]4O)[C@@H]2CC[C@]1(O[C@@H]1O[C@H](CO)[C@@H](O)[C@H](O[C@@H]2O[C@H](CO)[C@@H](O)[C@H](O)[C@H]2O)[C@H]1O[C@@H]1O[C@H](CO)[C@@H](O)[C@H](O)[C@H]1O)C3` [Form 2, rebaudioside A], for which the “Rate of dissolution in H2O at 25° C.” value in series [1] (in 5 minutes) is “Intermediate (<30%”.
For `CC(C)(C)CCNS(=O)(=O)[O-].[K+]` [sulfamate 3B, potassium 1H-3,3-dimethyl butyl sulfamate], the “sweetness intensity of a 6.0% sugar solution increased to the equivalent of” value in series [2] (about 200 ppm in 6.0% sugar solution) is reported as “about 7.0 % sugar solution”. In addition, the “sweet taste of the sulfamate by itself” value with sweet taste [3] (in amounts up to 1000 ppm) is listed as “not sweet by itself”.
With “sodium 1H-thiazolyl sulfamate [sulfamate 5]”, in series [2] (about 404 ppm in 6.0% sugar solution), the “sweetness intensity of a 6.0% sugar solution increased to the equivalent of” value was “about 6.9 % sugar solution”. In addition, the “sweet taste of the sulfamate by itself” value in the series on sweet taste [3] (no sugar) is “not sweet by itself”.
With `C=C1C[C@@]23CC[C@H]4[C@@](C)(CCC[C@@]4(C)C(=O)O[C@@H]4O[C@H](CO)[C@@H](O)[C@H](O)[C@H]4O)[C@@H]2CC[C@]1(O[C@@H]1O[C@H](CO)[C@@H](O)[C@H](O[C@@H]2O[C@H](CO)[C@@H](O)[C@H](O)[C@H]2O)[C@H]1O[C@@H]1O[C@H](CO)[C@@H](O)[C@H](O)[C@H]1O)C3` [Form 1, rebaudioside A], in series [1] (in 60 minutes), the “Rate of dissolution in H2O at 25° C.” value is “Very low (<0.2%”.
